Measurements taken from US20230085307A1, “PYRIDAZINONE COMPOUND AND HERBICIDE” (NISSAN CHEMICAL CORPORATION, priority 2019, published 2023).

Columns and labels:
[1] = tested on: barnyard grass; assay: Test Example 3: herbicidal effect by foliage application, Wagner pot (Table 18, symbol H); assay type: in vivo, barnyard grass (Echinochloa crus-galli)
Method in brief: (§1)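 Plants were sown in alluvial soil held under 0.1–0.5 cm standing water and grown 14 days in a greenhouse at 25–30 °C. An emulsifiable formulation, water-diluted to the set dose, was then sprayed onto the foliage, and effects were scored three weeks later using previously defined criteria.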

[2] = tested on: Chinese sprangletop; assay: Test Example 3: herbicidal effect by foliage application, Wagner pot (Table 18, symbol D); assay type: in vivo, chinese sprangletop (Leptochloa chinensis)
Method in brief: as §1

[3] = tested on: rice flat sedge; assay: Test Example 3: herbicidal effect by foliage application, Wagner pot (Table 18, symbol E); assay type: in vivo, rice flat sedge (Cyperus iria)
Method in brief: as §1

[4] = tested on: southern crabgrass; assay: Test Example 4: herbicidal effect by soil treatment (Table 19, symbol F); assay type: in vivo, southern crabgrass (Digitaria ciliaris); conditions: amount of applied herbicide 320 g/ha
Method in brief: (§2)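 Scoring uses the grading scale of an earlier test, three weeks post-application. Treatment consists of spraying a diluted emulsion formulation across the surface of sterilized diluvial soil in which seeds are buried near 1.5 cm deep; boxes are kept in a greenhouse between 25° C. and 30° C.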

[5] = tested on: green foxtail; assay: Test Example 4: herbicidal effect by soil treatment (Table 19, symbol G); assay type: in vivo, green foxtail (Setaria viridis); conditions: amount of applied herbicide 320 g/ha
Method in brief: as §2

[6] = tested on: barnyard grass; assay: Test Example 4: herbicidal effect by soil treatment (Table 19, symbol H); assay type: in vivo, barnyard grass (Echinochloa crus-galli); conditions: amount of applied herbicide 320 g/ha
Method in brief: as §2

[7] = tested on: wild oat; assay: Test Example 4: herbicidal effect by soil treatment (Table 19, symbol I); assay type: in vivo, wild oat (Avena fatua); conditions: amount of applied herbicide 320 g/ha
Method in brief: as §2

[8] = tested on: blackgrass; assay: Test Example 4: herbicidal effect by soil treatment (Table 19, symbol J); assay type: in vivo, blackgrass (Alopecurus myosuroides); conditions: amount of applied herbicide 320 g/ha
Method in brief: as §2

[9] = tested on: Italian ryegrass; assay: Test Example 4: herbicidal effect by soil treatment (Table 19, symbol K); assay type: in vivo, Italian ryegrass (Lolium multiflorum); conditions: amount of applied herbicide 320 g/ha
Method in brief: as §2

[10] = tested on: windgrass; assay: Test Example 4: herbicidal effect by soil treatment (Table 19, symbol L); assay type: in vivo, windgrass (Apera spica-venti); conditions: amount of applied herbicide 320 g/ha
Method in brief: as §2

[11] = tested on: velvetleaf; assay: Test Example 4: herbicidal effect by soil treatment (Table 19, symbol M); assay type: in vivo, velvetleaf (Abutilon theophrasti); conditions: amount of applied herbicide 320 g/ha
Method in brief: as §2

[12] = tested on: redroot pigweed; assay: Test Example 4: herbicidal effect by soil treatment (Table 19, symbol N); assay type: in vivo, redroot pigweed (Amaranthus retroflexus); conditions: amount of applied herbicide 320 g/ha
Method in brief: as §2

[13] = tested on: lambsquarters; assay: Test Example 4: herbicidal effect by soil treatment (Table 19, symbol O); assay type: in vivo, lambsquarters (Chenopodium album); conditions: amount of applied herbicide 320 g/ha
Method in brief: as §2

[14] = tested on: chickweed; assay: Test Example 4: herbicidal effect by soil treatment (Table 19, symbol P); assay type: in vivo, common chickweed (Stellaria media); conditions: amount of applied herbicide 320 g/ha
Method in brief: as §2

[15] = tested on: false cleavers; assay: Test Example 4: herbicidal effect by soil treatment (Table 19, symbol Q); assay type: in vivo, false cleavers (Galium spurium); conditions: amount of applied herbicide 320 g/ha
Method in brief: as §2

[16] = tested on: persian speedwell; assay: Test Example 4: herbicidal effect by soil treatment (Table 19, symbol R); assay type: in vivo, Persian speedwell (Veronica persica); conditions: amount of applied herbicide 320 g/ha
Method in brief: as §2

[17] = tested on: southern crabgrass; assay: Test Example 5: herbicidal effect by foliage application, plastic box (Table 20, symbol F); assay type: in vivo, southern crabgrass (Digitaria ciliaris); conditions: foliage application, 320 g/ha, three weeks after application
Method in brief: (§3)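 Post-emergence foliar test in sterilized diluvial soil. Compound applied as water-diluted emulsion at a predetermined rate to 14-day-old plants; evaluation at three weeks.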

[18] = tested on: green foxtail; assay: Test Example 5: herbicidal effect by foliage application, plastic box (Table 20, symbol G); assay type: in vivo, green foxtail (Setaria viridis); conditions: foliage application, 320 g/ha, three weeks after application
Method in brief: as §3

[19] = tested on: barnyard grass; assay: Test Example 5: herbicidal effect by foliage application, plastic box (Table 20, symbol H); assay type: in vivo, barnyard grass (Echinochloa crus-galli); conditions: foliage application, 320 g/ha, three weeks after application
Method in brief: as §3

[20] = tested on: wild oat; assay: Test Example 5: herbicidal effect by foliage application, plastic box (Table 20, symbol I); assay type: in vivo, wild oat (Avena fatua); conditions: foliage application, 320 g/ha, three weeks after application
Method in brief: as §3

[21] = tested on: blackgrass; assay: Test Example 5: herbicidal effect by foliage application, plastic box (Table 20, symbol J); assay type: in vivo, blackgrass (Alopecurus myosuroides); conditions: foliage application, 320 g/ha, three weeks after application
Method in brief: as §3

[22] = tested on: Italian ryegrass; assay: Test Example 5: herbicidal effect by foliage application, plastic box (Table 20, symbol K); assay type: in vivo, Italian ryegrass (Lolium multiflorum); conditions: foliage application, 320 g/ha, three weeks after application
Method in brief: as §3

[23] = tested on: windgrass; assay: Test Example 5: herbicidal effect by foliage application, plastic box (Table 20, symbol L); assay type: in vivo, windgrass (Apera spica-venti); conditions: foliage application, 320 g/ha, three weeks after application
Method in brief: as §3

[24] = tested on: velvetleaf; assay: Test Example 5: herbicidal effect by foliage application, plastic box (Table 20, symbol M); assay type: in vivo, velvetleaf (Abutilon theophrasti); conditions: foliage application, 320 g/ha, three weeks after application
Method in brief: as §3

[25] = tested on: redroot pigweed; assay: Test Example 5: herbicidal effect by foliage application, plastic box (Table 20, symbol N); assay type: in vivo, redroot pigweed (Amaranthus retroflexus); conditions: foliage application, 320 g/ha, three weeks after application
Method in brief: as §3

[26] = tested on: lambsquarters; assay: Test Example 5: herbicidal effect by foliage application, plastic box (Table 20, symbol O); assay type: in vivo, lambsquarters (Chenopodium album); conditions: foliage application, 320 g/ha, three weeks after application
Method in brief: as §3

[27] = tested on: chickweed; assay: Test Example 5: herbicidal effect by foliage application, plastic box (Table 20, symbol P); assay type: in vivo, common chickweed (Stellaria media); conditions: foliage application, 320 g/ha, three weeks after application
Method in brief: as §3

[28] = tested on: persian speedwell; assay: Test Example 5: herbicidal effect by foliage application, plastic box (Table 20, symbol R); assay type: in vivo, Persian speedwell (Veronica persica); conditions: foliage application, 320 g/ha, three weeks after application
Method in brief: as §3

[29] = amount of applied herbicide 320 g/ha

CC(=O)CSc1ccc(-c2sc3ccc(F)cc3c2-c2c(O)c(C)nn(C)c2=O)cc1 [2-424]
herbicidal effect on H: barnyard grass [1, 29]: 5 (Herbicidal rate of 90% or more (almost completely withered)) | herbicidal effect on D: Chinese sprangletop [2, 29]: 3 (Herbicidal rate of 40% or more and less than 70%) | herbicidal effect on E: rice flat sedge [3, 29]: 4 (Herbicidal rate of 70% or more and less than 90%) | herbicidal effect, F: southern crabgrass [4]: 0 (Herbicidal rate of 5% or less (almost no effect)) | herbicidal effect, G: green foxtail [5]: 0 (Herbicidal rate of 5% or less (almost no effect)) | herbicidal effect, H: barnyard grass [6]: 0 (Herbicidal rate of 5% or less (almost no effect)) | herbicidal effect, I: wild oat [7]: 0 (Herbicidal rate of 5% or less (almost no effect)) | herbicidal effect, J: blackgrass [8]: 0 (Herbicidal rate of 5% or less (almost no effect)) | herbicidal effect, K: Italian ryegrass [9]: 0 (Herbicidal rate of 5% or less (almost no effect)) | herbicidal effect, L: windgrass [10]: 0 (Herbicidal rate of 5% or less (almost no effect)) | herbicidal effect, M: velvetleaf [11]: 2 (Herbicidal rate of 20% or more and less than 40%) | herbicidal effect, N: redroot pigweed [12]: 4 (Herbicidal rate of 70% or more and less than 90%) | herbicidal effect, O: lambsquarters [13]: 3 (Herbicidal rate of 40% or more and less than 70%) | herbicidal effect, P: chickweed [14]: 0 (Herbicidal rate of 5% or less (almost no effect)) | herbicidal effect, Q: false cleavers [15]: 0 (Herbicidal rate of 5% or less (almost no effect)) | herbicidal effect, R: persian speedwell [16]: 0 (Herbicidal rate of 5% or less (almost no effect)) | F: southern crabgrass, herbicidal effect grade [17]: 3 (Herbicidal rate of 40% or more and less than 70%) | G: green foxtail, herbicidal effect grade [18]: 3 (Herbicidal rate of 40% or more and less than 70%) | H: barnyard grass, herbicidal effect grade [19]: 5 (Herbicidal rate of 90% or more (almost completely withered)) | I: wild oat, herbicidal effect grade [20]: 4 (Herbicidal rate of 70% or more and less than 90%) | J: blackgrass, herbicidal effect grade [21]: 3 (Herbicidal rate of 40% or more and less than 70%) | K: Italian ryegrass, herbicidal effect grade [22]: 1 (Herbicidal rate of 5% or more and less than 20%) | L: windgrass, herbicidal effect grade [23]: 4 (Herbicidal rate of 70% or more and less than 90%) | M: velvetleaf, herbicidal effect grade [24]: 3 (Herbicidal rate of 40% or more and less than 70%) | N: redroot pigweed, herbicidal effect grade [25]: 5 (Herbicidal rate of 90% or more (almost completely withered)) | O: lambsquarters, herbicidal effect grade [26]: 3 (Herbicidal rate of 40% or more and less than 70%) | P: chickweed, herbicidal effect grade [27]: 5 (Herbicidal rate of 90% or more (almost completely withered)) | R: persian speedwell, herbicidal effect grade [28]: 4 (Herbicidal rate of 70% or more and less than 90%)

Cc1nn(C)c(=O)c(-c2c(-c3ccc(OC(F)(F)F)cc3)sc3cc(F)ccc23)c1O [3-143]
herbicidal effect on barnyard grass (H) ([1]; 320 g/ha): 5 (Herbicidal rate of 90% or more (almost completely withered)) | herbicidal effect on Chinese sprangletop (D) ([2]; 320 g/ha): 4 (Herbicidal rate of 70% or more and less than 90%) | herbicidal effect on rice flat sedge (E) ([3]; 320 g/ha): 5 (Herbicidal rate of 90% or more (almost completely withered)) | Herbicidal effect by soil treatment, F: southern crabgrass [4]: 0 (Herbicidal rate of 5% or less (almost no effect)) | Herbicidal effect by soil treatment, G: green foxtail [5]: 2 (Herbicidal rate of 20% or more and less than 40%) | Herbicidal effect by soil treatment, H: barnyard grass [6]: 0 (Herbicidal rate of 5% or less (almost no effect)) | Herbicidal effect by soil treatment, I: wild oat [7]: 0 (Herbicidal rate of 5% or less (almost no effect)) | Herbicidal effect by soil treatment, J: blackgrass [8]: 0 (Herbicidal rate of 5% or less (almost no effect)) | Herbicidal effect by soil treatment, K: Italian ryegrass [9]: 0 (Herbicidal rate of 5% or less (almost no effect)) | Herbicidal effect by soil treatment, L: windgrass [10]: 4 (Herbicidal rate of 70% or more and less than 90%) | Herbicidal effect by soil treatment, M: velvetleaf [11]: 0 (Herbicidal rate of 5% or less (almost no effect)) | Herbicidal effect by soil treatment, N: redroot pigweed [12]: 4 (Herbicidal rate of 70% or more and less than 90%) | Herbicidal effect by soil treatment, O: lambsquarters [13]: 4 (Herbicidal rate of 70% or more and less than 90%) | Herbicidal effect by soil treatment, P: chickweed [14]: 0 (Herbicidal rate of 5% or less (almost no effect)) | Herbicidal effect by soil treatment, Q: false cleavers [15]: 3 (Herbicidal rate of 40% or more and less than 70%) | Herbicidal effect by soil treatment, R: persian speedwell [16]: 3 (Herbicidal rate of 40% or more and less than 70%) | F: southern crabgrass, herbicidal effect grade [17]: 1 (Herbicidal rate of 5% or more and less than 20%) | G: green foxtail, herbicidal effect grade [18]: 4 (Herbicidal rate of 70% or more and less than 90%) | H: barnyard grass, herbicidal effect grade [19]: 4 (Herbicidal rate of 70% or more and less than 90%) | I: wild oat, herbicidal effect grade [20]: 0 (Herbicidal rate of 5% or less (almost no effect)) | J: blackgrass, herbicidal effect grade [21]: 5 (Herbicidal rate of 90% or more (almost completely withered)) | K: Italian ryegrass, herbicidal effect grade [22]: 5 (Herbicidal rate of 90% or more (almost completely withered)) | L: windgrass, herbicidal effect grade [23]: 5 (Herbicidal rate of 90% or more (almost completely withered)) | M: velvetleaf, herbicidal effect grade [24]: 5 (Herbicidal rate of 90% or more (almost completely withered)) | N: redroot pigweed, herbicidal effect grade [25]: 5 (Herbicidal rate of 90% or more (almost completely withered)) | O: lambsquarters, herbicidal effect grade [26]: 5 (Herbicidal rate of 90% or more (almost completely withered)) | P: chickweed, herbicidal effect grade [27]: 5 (Herbicidal rate of 90% or more (almost completely withered)) | R: persian speedwell, herbicidal effect grade [28]: 5 (Herbicidal rate of 90% or more (almost completely withered))
